Assay results taken from patent US20220152004A1, “HETEROCYCLYL(PHENYL)METHANOL COMPOUNDS USEFUL IN THE TREATMENT OF HYPERGLYCAEMIA” (ATROGI AB, priority 2019, published 2022).

Tests used:
L6-myotubes [1] = experiment: Measurement of intracellular cAMP levels in differentiated L6-myotubes; assay type: cell-based; conditions: Table 2; cAMP assay of Biological Example 2; agonist final concentration 1×10^−5
Method: (§1) L6-myoblasts were grown in Dulbecco's Modified Eagle's Medium (DMEM) containing 4.5 g/l glucose supplemented with 10% fetal bovine serum, 2 mM L-Glutamine, 50 U/ml penicillin, 50 μg/ml streptomycin and 10 mM HEPES. Cells were plated at 1×10^5 cells per ml in 24-well plates. After reaching 90% confluence the cells were grown in medium containing 2% FBS for 7 days where upon cells differentiated into myotubes.
Differentiated cells were serum-starved overnight and stimulated with agonist, final concentration 1×10^−5, for 15 min in stimulation buffer (HBSS supplemented with 1% BSA, 5 mM HEPES and 1 mM IBMX, pH 7,4) The medium was then aspirated and to end the reaction 100 μL of 95% EtOH was added to each well of a 24-well plate and cells were kept in −20° C. over night. The EtOH was let to evaporate and 500 μL of lysis buffer (1% BSA, 5 mM HEPES and 0,3% Tween-20, pH 7,4) was added to each well before put in −80° C. for 30 min and then kept in −20° C. Intracellular cAMP levels were detected using an alpha screen cAMP kit (6760635D from Perkin Elmer). The activity for each compound is compared to that of isoproterenol.

L6-myotubes [2] = experiment: Glucose uptake (3H-2-deoxy-glucose) in differentiated L6-myotubes; assay type: cell-based; conditions: Table 2; glucose uptake assay of Biological Example 1; agonist final concentration 1×10^−5
Method: as §1
Differentiated L6-myotubes were serum-starved overnight in medium containing 0,5% fatty-acid free BSA and stimulated with agonist, final concentration 1×10^−5. After 1 h 40 min cells were washed with warm, glucose free medium or PBS and another portion of agonist was added to glucose free medium. After 20 min the cells were exposed to 50 nM ^3H-2-deoxy-glucose for another 10 min before washed in ice cold glucose free medium or PBS and lysed in 0.2 M NaOH for 1 h in 60° C.

SMILES | Biological example 4 (L6-myotubes [1]) | Biological example 3 (L6-myotubes [2])
CC1(C)C[C@@H]([C@H](O)c2ccccc2F)N1.Cl [Example 37, (R)-((S)-4,4-dimethylazetidin-2-yl)(2-fluorophenyl)methanol hydrochloride] | − (less than 25%) | − (less than 25%)
CC1(C)C[C@@H]([C@H](O)c2cccc(F)c2)N1.Cl [Example 39, (R)-((S)-4,4-dimethylazetidin-2-yl)(3-fluorophenyl)methanol hydrochloride] | − (less than 25%) | − (less than 25%)
CC1(C)C[C@@H]([C@@H](O)c2cccc(F)c2)N1.Cl [Example 40, (S)-((S)-4,4-dimethylazetidin-2-yl)(3-fluorophenyl)methanol hydrochloride] | − (less than 25%) | + (between 50 and 25%)
CC1(C)CCC[C@@H]([C@H](O)c2ccccc2F)N1.Cl [Example 41, (R)-((S)-6,6-dimethylpiperidin-2-yl)(2-fluorophenyl)methanol hydrochloride] | + (between 50 and 25%) | +++ (more than 75% of that of isoproterenol)
CC1(C)CCC[C@@H]([C@@H](O)c2ccccc2F)N1.Cl [Example 42, (S)-((S)-6,6-dimethylpiperidin-2-yl)(2-fluorophenyl)methanol hydrochloride] | − (less than 25%) | + (between 50 and 25%)
CC1(C)CCC[C@@H]([C@@H](O)c2cccc(F)c2)N1.Cl [Example 43, (S)-((S)-6,6-dimethylpiperidin-2-yl)(3-fluorophenyl)methanol hydrochloride] | − (less than 25%) | + (between 50 and 25%)
CC1(C)CCC[C@@H]([C@H](O)c2cccc(F)c2)N1.Cl [Example 44, (R)-((S)-6,6-dimethylpiperidin-2-yl)(3-fluorophenyl)methanol hydrochloride] | − (less than 25%) | ++ (between 75 and 50%)
CC1(C)C[C@H]([C@H](O)c2cccc(Cl)c2)N1.O=C(O)/C=C\C(=O)O [Example 45, (R)-(3-chlorophenyl)((R)-4,4-dimethylazetidin-2-yl)methanol maleate] | − (less than 25%) | +++ (more than 75% of that of isoproterenol)
CC1(C)C[C@H]([C@@H](O)c2cccc(Cl)c2)N1.O=C(O)/C=C\C(=O)O [Example 46, (S)-(3-chlorophenyl)((R)-4,4-dimethylazetidin-2-yl)methanol maleate] | − (less than 25%) | − (less than 25%)
CC1(C)C[C@@H]([C@H](O)c2cccc(Cl)c2)N1.O=C(O)/C=C\C(=O)O [Example 47, (R)-(3-chlorophenyl)((S)-4,4-dimethylazetidin-2-yl)methanol maleate] | − (less than 25%) | ++ (between 75 and 50%)
CC1(C)C[C@@H]([C@@H](O)c2cccc(Cl)c2)N1.O=C(O)/C=C\C(=O)O [Example 48, (S)-(3-chlorophenyl)((S)-4,4-dimethylazetidin-2-yl)methanol maleate] | − (less than 25%) | + (between 50 and 25%)
CC1(C)CC[C@H]([C@H](O)c2cccc(N)c2F)N1.Cl [Example 49, (R)-(3-amino-2-fluorophenyl)((R)-5,5-dimethylpyrrolidin-2-yl)methanol hydrochloride] | − (less than 25%) | +++ (more than 75% of that of isoproterenol)
CC1(C)CC[C@H]([C@@H](O)c2cccc(N)c2F)N1.Cl [Example 50, (S)-(3-amino-2-fluorophenyl)((R)-5,5-dimethylpyrrolidin-2-yl)methanol hydrochloride] | − (less than 25%) | + (between 50 and 25%)
